Source: US20250051277A1, “DELIVERY OF THERAPEUTIC ALKALOID COMPOUNDS” (Sensorium Therapeutics, Inc., priority 2021, published 2025)
Like-named read-outs stand apart in the source and are kept apart here.

Assays:
[1] = Hydrolysis Assay of Example A1 (conversion by LCMS); assay type: physicochemical; settings: for Conversion (%) / Notes (hydrolysis): 0.5 mM, 0.01M HCl
Method: The hydrolysis kinetics was under a certain temperature and measured by LCMS at a certain time interval. The corresponding LCMS chromatograms were recorded and the conversions were calculated. The hydrolysis conditions and the data were summarized in below table. LCMS spectra were obtained using Agilent 1200/G1956A or SHIMADZU LCMS-2020. Standard LCMS conditions were as follows (running time 1.55 minutes): • Acidic condition: Mobile Phase A: 0.0375% TFA in water (v/v). Mobile Phase B: 0.01875% TFA in acetonitrile (v/v); Column: Kinetex EVO C18 30*2.1 mm, 5 μm. • Basic condition: Mobile Phase A: 0.025% NH3·H2O in water (v/v). Mobile Phase B: Acetonitrile; Column: Kinetex EVO C18 2.1×30 mm, 5 μm. • Conversion (%)=peak area 1/(peak area 1+peak area 2)*100%, peak area 1 is the integration of hydrolyzed product, peak area 2 is the integration of starting material.

[2] = assay type: physicochemical; settings: SGF with pepsin, pH 1.5, 37° C., 0.5 mM
[3] = Plasma Stability Assay of Example A3, mouse plasma; settings: 5 μM, 37° C., % of prodrug compound remaining
[4] = assay type: physicochemical; settings: DI water, 25° C., 0.5 mM
[5] = Plasma Stability Assay of Example A3, human plasma; settings: 5 μM, 37° C., % of prodrug compound remaining
[6] = 5 μM
[7] = 10 μM
Method: (§1) 50 μL aliquots of positive controls and test compounds spiked into rat or human plasma (n=2) were added to a pre-warmed plate (37° C.) and shaken at 50 rpm. At each respective time point, the reaction was stopped by adding 500 μL of acetonitrile containing internal standards (100 nM aprozolam, 200 nM caffeine, 100 nM tolbutamide). All samples were vortexed for 10 minutes, followed by centrifugation at 3,220 g for 30 minutes to precipitate proteins. 100 μL of the supernatant is transferred to a new plate. The supernatant will be diluted with ultrapure water according to the LC-MS signal response and peak shape.

[8] = 10 μM; remark: listed apart in the source
Method: as §1

SMILES	Condition 1 Conversion (%) ([2]; time 1 min)	Condition 1 Conversion (%) ([2]; time 5 min)	Condition 1 Conversion (%) ([2]; time 30 min)	Condition 1 Conversion (%) ([2]; time 1 h)	Condition 1 Conversion (%) ([2]; time 4 h)	Condition 1 Conversion (%) ([2]; time 24 h)	Mouse Plasma Prodrug (%) ([3]; 0 min)	Mouse Plasma Prodrug (%) ([3]; 15 min)	Mouse Plasma Prodrug (%) ([3]; 30 min)	Mouse Plasma Prodrug (%) ([3]; 60 min)	Mouse Plasma Prodrug (%) ([3]; 120 min)	Mouse Plasma Prodrug (%) ([3]; 240 min)	Human Plasma Prodrug (%) ([5]; 0 min)	Human Plasma Prodrug (%) ([5]; 15 min)	Human Plasma Prodrug (%) ([5]; 30 min)	Human Plasma Prodrug (%) ([5]; 60 min)	Human Plasma Prodrug (%) ([5]; 120 min)	Human Plasma Prodrug (%) ([5]; 240 min)	Human Plasma Compound 001 (%) ([6]; 0 min)	also measured
COc1ccc([C@@]23CCC(=NO)C[C@@H]2N(C)CC3)cc1OC (mixture of isomers) [Compound 037]	0	0	82.3	89	89.2	89.5														conversion to mesembrine in the Hydrolysis Assay ([1]; acidic pH 2.0, temperatures of 25 or 37° C.): converted to mesembrine; Conversion (%) ([1]; pH = 2.0, 37° C., 10 min): 59%; Conversion (%) ([1]; pH = 2.0, 37° C., 60 min): 84%; Conversion (%) ([1]; pH = 2.0, 37° C., 90 min): 87%
COc1ccc([C@]23CCN(C)[C@H]2CC2(CC3)OCCO2)cc1OC (racemic) [Compound 013, 3′a-(3,4-dimethoxyphenyl)-1′-methyl-spiro[1,3-dioxolane-2,6′-2,3,4,5,7,7a-hexahydroindole]]																				conversion to mesembrine in the Hydrolysis Assay ([1]; acidic pH 2.0, 5° C. as printed): not at 5 °C; conversion to mesembrine in the Hydrolysis Assay ([1]; acidic pH 2.0, temperatures of 37 and 50° C.): converted to mesembrine; Conversion (%) ([1]; pH = 2.0, 25° C., 0-24 h): 0%; Notes (hydrolysis) ([1]; pH = 2.0, 25° C., 0-24 h): Stable; Conversion (%) ([1]; pH = 2.0, 37° C., 16 h): 17%; Conversion (%) ([1]; pH = 2.0, 37° C., 24 h): 22%; Conversion (%) ([1]; pH = 2.0, 37° C., 42 h): 35%; Conversion (%) ([1]; pH = 2.0, 37° C., 56 h): 50%; Conversion (%) ([1]; pH = 2.0, 37° C., 7 d): 77%; Conversion (%) ([1]; pH = 2.0, 50° C., 10 min): 1%; Conversion (%) ([1]; pH = 2.0, 50° C., 40 min): 2%; Conversion (%) ([1]; pH = 2.0, 50° C., 120 min): 19%; Conversion (%) ([1]; pH = 2.0, 50° C., 22 h): 90%
COc1ccc([C@]23CCN(C)[C@H]2CC2(CC3)SCCS2)cc1OC (racemic) [Compound 014, (7′aS)-3′a-(3,4-dimethoxyphenyl)-1′-methyl-spiro[1,3-dithiolane-2,6′-2,3,4,5,7,7a-hexahydroindole]]																				Conversion (%) ([1]; pH = 2.0, 25° C., 0-24 h): 0%; Notes (hydrolysis) ([1]; pH = 2.0, 25° C., 0-24 h): Stable
COc1ccc([C@@]23CC/C(=N\NC(=O)c4cccnc4)C[C@@H]2N(C)CC3)cc1OC [Compound 036, N-[[(3aS,7aS)-3a-(3,4-dimethoxyphenyl)-1-methyl-2,3,4,5,7,7a-hexahydroindol-6-ylidene]amino]pyridine-3-carboxamide]	100	100	100	100	100	100														Notes (hydrolysis) ([1]; pH = 2.0, 37° C., 0 to 1 min): Hydrolyzed; Conversion (%) ([1]; pH = 2.0, 37° C., 1 min): 100%; Conversion (%) ([1]; pH = 2.0, 37° C., time 0): 0%
COc1ccc([C@@]23CCC(OC(=O)c4ccc(N(C)C)cc4)=C[C@@H]2N(C)CC3)cc1OC [Compound 355, [(3aS,7aS)-3a-(3,4-dimethoxyphenyl)-1-methyl-3,4,5,7a-tetrahydro-2H-indol-6-yl]4-(dimethylamino)benzoate]	0	0	0	0	0	0	100.0	50.6	30.8	9.9	0.5	0.0	100.0	>99	>99	>99	>99	93.2	0.0	Condition 2 Conversion (%) ([4]; time 1 min): 0%; Condition 2 Conversion (%) ([4]; time 5 min): 0%; Condition 2 Conversion (%) ([4]; time 30 min): 0%; Condition 2 Conversion (%) ([4]; time 1 h): 0%; Condition 2 Conversion (%) ([4]; time 4 h): 0%; Condition 2 Conversion (%) ([4]; time 24 h): 0%
COc1ccc([C@@]23CCC(OC(=O)c4cccc(C)c4C)=C[C@@H]2N(C)CC3)cc1OC [Compound 373, (3aS,7aS)-3a-(3,4-dimethoxyphenyl)-1-methyl-2,3,3a,4,5,7a-hexahydro-1H-indol-6-yl2,3-dimethylbenzoate]							100	82	64	41	12	1	100	93.9	96.5	81.4	66.1	17.2	0	Prodrug (%) remaining, Rat Plasma ([7]; 0 h): 100.0%; Prodrug (%) remaining, Rat Plasma ([7]; 10 min): 81.0%; Prodrug (%) remaining, Rat Plasma ([7]; 0.5 h): 58.4%; Prodrug (%) remaining, Rat Plasma ([7]; 1 h): 26.8%; Prodrug (%) remaining, Rat Plasma ([7]; 2 h): 5.2%; Prodrug (%) remaining, Rat Plasma ([7]; 4 h): 1.3%; Prodrug (%) remaining, Human Plasma ([8]; 0 h): 100.0%; Prodrug (%) remaining, Human Plasma ([8]; 10 min): 96.3%; Prodrug (%) remaining, Human Plasma ([8]; 0.5 h): >99%; Prodrug (%) remaining, Human Plasma ([8]; 1 h): 94.8%; Prodrug (%) remaining, Human Plasma ([8]; 2 h): 89.9%; Prodrug (%) remaining, Human Plasma ([8]; 4 h): 96.3%
COc1ccc([C@@]23CCC(OC(=O)c4cccc(C)c4)=C[C@@H]2N(C)CC3)cc1OC [Compound 374, (3aS,7aS)-3a-(3,4-dimethoxyphenyl)-1-methyl-2,3,3a,4,5,7a-hexahydro-1H-indol-6-yl3-methylbenzoate]							100	33	4	0	0	0	100	98	88	84	62	11	0.00	Prodrug (%) remaining, Rat Plasma ([7]; 0 h): 100.0%; Prodrug (%) remaining, Rat Plasma ([7]; 10 min): 9.7%; Prodrug (%) remaining, Rat Plasma ([7]; 0.5 h): 0.3%; Prodrug (%) remaining, Rat Plasma ([7]; 1 h): 0.1%; Prodrug (%) remaining, Rat Plasma ([7]; 2 h): 0.0%; Prodrug (%) remaining, Rat Plasma ([7]; 4 h): 0.0%; Prodrug (%) remaining, Human Plasma ([8]; 0 h): 100.0%; Prodrug (%) remaining, Human Plasma ([8]; 10 min): >99%; Prodrug (%) remaining, Human Plasma ([8]; 0.5 h): >99%; Prodrug (%) remaining, Human Plasma ([8]; 1 h): >99%; Prodrug (%) remaining, Human Plasma ([8]; 2 h): >99%; Prodrug (%) remaining, Human Plasma ([8]; 4 h): 95.4%; Human Plasma Compound 001 (%) ([6]; 30 min): 3.19%; Human Plasma Compound 001 (%) ([6]; 60 min): 5.92%; Human Plasma Compound 001 (%) ([6]; 120 min): 9.01%; Human Plasma Compound 001 (%) ([6]; 240 min): 7.54%
